One compound from article PMC10872856 (The Prostate, 2023) can be followed below.

For orientation: IC50 means the point on the concentration scale where inhibition reaches its midpoint. Read a low IC50 as greater potency.

This experiment deals with T1, N-myristoyltransferase 1 (NMT1) (Homo sapiens, UniProt P30419).
T1 sequence (P30419 1-496): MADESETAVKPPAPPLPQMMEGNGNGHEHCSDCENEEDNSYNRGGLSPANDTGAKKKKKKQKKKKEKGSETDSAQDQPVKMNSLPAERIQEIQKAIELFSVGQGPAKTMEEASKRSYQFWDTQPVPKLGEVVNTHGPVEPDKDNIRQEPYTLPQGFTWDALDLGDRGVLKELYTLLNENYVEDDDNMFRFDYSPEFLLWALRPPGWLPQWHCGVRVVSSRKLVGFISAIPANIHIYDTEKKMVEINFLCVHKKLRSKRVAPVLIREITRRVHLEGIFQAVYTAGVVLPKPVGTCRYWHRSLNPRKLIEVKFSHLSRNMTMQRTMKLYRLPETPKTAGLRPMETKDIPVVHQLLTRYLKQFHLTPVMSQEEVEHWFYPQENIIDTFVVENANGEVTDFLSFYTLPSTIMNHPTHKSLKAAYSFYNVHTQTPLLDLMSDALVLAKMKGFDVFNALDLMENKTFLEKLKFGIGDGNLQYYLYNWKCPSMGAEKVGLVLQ
The experiment can be described thus: fluorogenic CoA-release enzyme assay. The experiment is classed as biochemical.

For `CCCCCCCCCCCCCCN[C@H](CO)[C@H](O)c1ccc([N+](=O)[O-])cc1` [LCL204, (1R,2R)-LCL204], half-maximal inhibition (IC50) was put at 2300 nM.
